Data set [1] is described as follows: in vitro rate of CO2 absorption by water-soaked paper towel (funnel / oil bolus apparatus). The format is physicochemical. The note with it: 80-cm^2 area test surface, several tests. The method, then: To determine the inherent rate of absorption and diffusion of CO2 in a “passive” aqueous medium a preliminary in vitro experiment was performed. The apparatus and method employed for measuring the rate of CO2 absorption by a surface is illustrated in FIG. 1. The device was placed on a table top 150, and comprised a source of CO2 in the form of a cylinder 101 and a flow regulator 110, including a pressure regulator 112 and flow meter 113. Polyethylene tubing 115 of approximately 0.2 cm^2 lumen connected the cylinder 101 to a glass funnel 120 having a maximum area of 80 cm^2. An additional length of tubing 125 was used for measurement of changes in gas volume. This gas volume measurement means used in the experiment could be eliminated in a device intended to administer CO2 to a patient's skin surface. The entire system was purged of air by prolonged CO2 flow. The additional length of tubing 125 was purged first, then a bolus of low-volatility (forepump) oil 130 was inserted into its open end and the end plugged. […]
Next, the funnel was placed on test surface 140 of a 0.4-mm thick water-soaked paper towel having about the same thickness as skin. […] The observed initial rate of absorption determined from several such tests fell in the range 0.6-1.2 ml/min, and saturation occurred at 4-10 ml, for the 80-cm^2 area test surface. […]

Data set [2] has as its system skin on the right anterior thigh. The data set can be described thus: rate of transcutaneous absorption of gaseous CO2 into a human body (funnel on wet skin). The format is in vivo. The method, then:
To determine the inherent rate of absorption and diffusion of CO2 in a “passive” aqueous medium a preliminary in vitro experiment was performed. The apparatus and method employed for measuring the rate of CO2 absorption by a surface is illustrated in FIG. 1. The device was placed on a table top 150, and comprised a source of CO2 in the form of a cylinder 101 and a flow regulator 110, including a pressure regulator 112 and flow meter 113. Polyethylene tubing 115 of approximately 0.2 cm^2 lumen connected the cylinder 101 to a glass funnel 120 having a maximum area of 80 cm^2. An additional length of tubing 125 was used for measurement of changes in gas volume. This gas volume measurement means used in the experiment could be eliminated in a device intended to administer CO2 to a patient's skin surface. The entire system was purged of air by prolonged CO2 flow. The additional length of tubing 125 was purged first, then a bolus of low-volatility (forepump) oil 130 was inserted into its open end and the end plugged. The funnel 120 was then purged with its open end resting on a portion of the selected test surface 140 immediately adjacent to the portion to be tested, and with the purge flow escaping at its edge. At zero time the purge flow was terminated, the plug in the tube 125 end was removed and the funnel was slid onto the test portion of the surface without breaking the seal between the funnel edge and the wet surface. The displacement of the oil bolus 130 within the 0.20 cm^2 lumen of the tube 125 was then observed as CO2 gas was removed from the closed system via absorption in the surface 140; i.e., each cm of displacement corresponded to absorption of 0.20 cc of gas by 80 cm^2 of test surface.
An area of skin on the right anterior thigh sufficiently large for two positions of the funnel 120 applicator was washed thoroughly and soaked with water for fifteen minutes. The funnel 120 was purged of air by prolonged CO2 flow (for about 10 minutes) while seated on the wet skin in the upper thigh position 160, and then was slid to the lower thigh position 170 at zero time. […] In other words, it appeared that less than <0.1 ml of gas was absorbed. […] Therefore, the inventors concluded that some quantity of CO2, sufficient to cause the observed vascular effects, must have diffused into the skin. Therefore, the inventors continued with their experiments to determine if a transcutaneous application of CO2 would reduce local pain.

Data set [3] relates to muscular-skeletal pain conditions (cervico-cranial syndrome, cervico-brachial syndrome, lumbalgia). The note with it: cited from earlier work.
A further data set relates to allergic rhinitis attack. The data set can be described thus: treatment of allergic rhinitis by carbonated water nasal spray. It counts as in vivo, human. The note with it: carbonated water spray and gaseous CO2 infusion used alternately over a day, one subject. The source says:
Because of the observed similarity of the physiological effects of gaseous CO2 and a […] solution (carbonated water) applied to the skin, the inventors believed that a […] solution might be effective for treatment of upper respiratory indications for which infusion of gaseous CO2 is effective. With reference to FIG. 5, to test this hypothesis, a 70-ml commercially marketed plastic “squeeze” bottle 510 for dispensing a physiological saline spray was 3⁄4 filled with fresh effervescing carbonated water. The carbonated water spray was then sprayed into the nose of a subject 520 who was suffering a mild allergic rhinitis attack. […] During the course of a day as allergic rhinitis attacks reoccurred, the carbonated water spray and gaseous CO2 infusion were used alternately and their relative effectiveness assessed. […] The disagreeable aspects cited were the discomfort associated with a liquid being sprayed up the nose and the messiness of the effluent liquid from the nose after the spray. Nevertheless, the carbonated nasal spray is a distinct alternative for treatment of the upper respiratory distress indications, and shares many of the advantages of a gaseous CO2 infusion treatment including effectiveness, ease of use, rapid relief on demand, unlimited dose, low cost, and freedom from aftereffects and other contraindications associated with the use of drugs. […]

Where [4] appears, read: after subcutaneous injection of 100-200 ml CO2 gas.
[5] abbreviates: of 335 patients treated, 100-200 ml CO2 gas injected under the skin, 10-15 injections over 2-5 weeks.

The values below come from patent US6652479B2, “Method and apparatus for transcutaneous infusion of carbon dioxide for local relief of pain and other ailments” (Capnia, Inc., priority 2000, dated 2003).

Bounds are passed on as bounds.

In the case of `O=C=O` [CO2, carbon dioxide], in data set [1], the “absorbed gas volume at saturation” value was 4 to 10 mL and the “initial rate of absorption of gaseous CO2” value lay in the range of 0.6 to 1.2 mL/min. In addition, in data set [2] (after about 10 minutes contact with gaseous CO2), the “skin reaction over region in contact with CO2” value is “a hyperemia was observed”. Moreover, in data set [2] (gaseous CO2 on wet skin), the aftereffects result was “no observed aftereffects”, the “time for reddening to develop in contact with CO2” value is “three to five” and the “time for reddening to subside after removal of the CO2” value is reported as “a similar period”. The “gas absorbed by the skin” value in data set [2] (wet skin, 80 cm^2 funnel, about 10 minutes, several tests) is less than 0.1 mL. In addition, in data set [3] (setting [4]), the “diameter of gas emphysemum at injection site” value is approximately 8 cm; the “skin reaction at the injection site” value is recorded as “mild hyperemia”; the “time for gas emphysemum and hyperemia to disappear after the injection” value was 3 to 5 min. In addition, in data set [3] (setting [5]), the “patients improved with some remaining distress” value is recorded as 157, the “patients who became difficulty-free or were substantially improved” value is recorded as 171 and the “patients with no improvement” value is 7. Moreover, the “number of treatments after which improvement of the indicated disorder occurred” value in data set [3] (subcutaneous injection of 100-200 ml CO2 gas daily or twice-weekly) was 4-5 treatments. The “relative effectiveness for relief and suppression of allergic rhinitis symptoms” value with allergic rhinitis attack is “equally effective”.
